Test results published in patent publication US12037324B2, “Biarylmethyl heterocycles” (Université de Montréal, priority 2016, dated 2024).

Legend:
Format in all cases: cell-based
hAT1R = biological target: T1, hAT1R (Homo sapiens, UniProt P30556); test: BRET β-arrestin2 biosensor assay, higher receptor expression (hAT1R 5 ng/well), HEK293 cells; conditions: for EC50: High AT1R Expression
T1 sequence (P30556 1-359): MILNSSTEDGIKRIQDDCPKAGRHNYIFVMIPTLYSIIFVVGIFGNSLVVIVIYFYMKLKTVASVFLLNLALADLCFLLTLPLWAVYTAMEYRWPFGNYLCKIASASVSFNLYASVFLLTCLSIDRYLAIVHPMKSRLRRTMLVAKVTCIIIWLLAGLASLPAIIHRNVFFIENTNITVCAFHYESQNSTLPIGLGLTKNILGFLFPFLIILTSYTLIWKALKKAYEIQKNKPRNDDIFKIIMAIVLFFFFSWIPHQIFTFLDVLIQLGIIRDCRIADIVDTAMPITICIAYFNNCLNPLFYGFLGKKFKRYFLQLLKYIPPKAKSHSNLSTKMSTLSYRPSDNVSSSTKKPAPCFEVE

AGTR1 [1] = biological target: T2, AGTR1 (Homo sapiens, UniProt P30556); test: DiscoveRx β-arrestin2 recruitment assay (enzyme complementation, Pathunter CHO-K1 AGTR1 β-arrestin cell line); conditions: DiscoveRx β-arrestin2 recruitment; for DiscoveRx β-arrestin2 Ymax (%): maximal response
T2 construct: host or cells: Pathunter CHO-K1 AGTR1 β-arrestin cell line (CHO-K1)
T2 sequence (P30556 1-359): T1 sequence (P30556 1-359)
Method: In one aspect of the invention, signaling bias of compounds was assessed by comparing the relative activity of compounds to activate both the β-arrestin and Gq signaling pathways. In order to confirm signaling bias, compounds were studied in two different assay formats. DiscoveRx β-arrestin2 Recruitment and IP1 Assays β-arrestin2 recruitment to activated receptors can be assessed using an enzyme complementation method (Zhao, Jones et al. 2008). […] Cells (5000/well) were plated into 1536 well plates (Cellocoat plates, Greiner Bio One, Monroe, NC) 14-16 hours before each experiment in 20 μl DMEM/F12 medium (Thermo-Fisher Scientific, Carlsbad, CA) containing heat-inactivated 1% fetal bovine serum. Subsequently, the compounds of interest were added at varying concentrations to the wells in a volume of 200 nl and the cells incubated for 90 min at 37° C. The detection reagent (10 μl) was added to each well and the plates incubated at room temperature for 1 hour before measurement of chemiluminescence using an EnVision Multilabel Reader (Perkin-Elmer, Waltham, MA). The data are processed using Toolset for Runmaster QCMulti. Concentration-response curves are fitted and EC50s (agonist mode) and IC50s (antagonist mode) estimated using a 4-parameter logistic equation. Compound activities are reported as a relative percentage to the maximal effect of All in the assays.

AGTR1 [2] = biological target: T2, AGTR1; test: DiscoveRx IP1 accumulation assay (HTRF), agonist mode, Pathunter CHO-K1 AGTR1 β-arrestin cell line; conditions: for EC50: read-out: IP-1 EC50
Method: In one aspect of the invention, signaling bias of compounds was assessed by comparing the relative activity of compounds to activate both the β-arrestin and Gq signaling pathways. In order to confirm signaling bias, compounds were studied in two different assay formats.
DiscoveRx β-arrestin2 Recruitment and IP1 Assays
Gq activation can be assessed by measuring the accumulation of inositol phosphates (e.g. IP3, IP1) that are liberated following activation of phospholipase C by Gq (Thomsen, Frazer et al. 2005). In the current invention we have utilized the DiscoveRx Pathunter CHO-K1 AGTR1 β-arrestin cell line to also measure IP1 accumulation in response to compounds. IP1 accumulation was measured in both agonist and antagonist modes. In agonist mode, cells are plated as above 14-16 hours before the experiment. The medium is then removed and compounds at varying concentrations added in a final volume of 20 μl. The cells are incubated at 37° C. for 90 min. IP1 accumulation detected using a commercial HTRF assay according to manufacturer's instructions (Cisbio, Bedford, MA). Specifically, 4 μl of D2-conjugate solution (diluted 1:20 in Cisbio HTRF assay buffer) is added to each well, followed by the addition of 4 μl of anti-IP1 cryptate diluted 1:20 in HTRF assay buffer and the plates incubated for 20 min at room temperature. 14 μl from each well is measured using an Envision multi-label reader and data processed using Toolset for Runmaster QCMulti. Concentration-response curves are fitted and EC50s (agonist mode) and IC50s (antagonist mode) estimated using a 4-parameter logistic equation. Compound activities are reported as a relative percentage to the maximal effect of All in the assays.

Row | SMILES | BRET β-Arrestin2 High AT1R Expression Ymax (%) (hAT1R) | EC50 (hAT1R) | EC50 (AGTR1 [1]) | DiscoveRx β-arrestin2 Ymax (%) (AGTR1 [1]) | IP-1 Ymax (%) (AGTR1 [2]) | EC50 (AGTR1 [2])
1 | CCc1nc2c(C)cc(C)nc2n1Cc1ccc(-c2cc(-c3ccc(OC(F)(F)F)cc3)ccc2-c2nn[nH]n2)cc1 [Example 6] | 73.5% | 0.051 µM | 0.0141 µM | 27.0% | 4.9% | 0.0146 µM
2 | CCc1nc2c(C)cc(C)nc2n1Cc1ccc(-c2cc(-c3ccc(C(F)(F)F)cc3)ccc2-c2nn[nH]n2)cc1 [Example 7] | 60.0% | 0.0374 µM | 0.0144 µM | 21.6% | 9.2% | 0.0839 µM
3 | CCc1nc2c(C)cc(C)nc2n1Cc1ccc(-c2cc(-c3cccs3)ccc2-c2nn[nH]n2)cc1 [Example 12] | 83.6% | 0.009 µM | 0.0063 µM | 21.4% |  | > 1 µM
4 | CCc1nc2c(C)cc(C)nc2n1Cc1ccc(-c2cc(-c3ccc4ncccc4c3)ccc2-c2nn[nH]n2)cc1 [Example 13] | 53.8% | 0.0115 µM | 0.0129 µM | 24.8% |  | > 1 µM
5 | CCc1nc2c(C)cc(C)nc2n1Cc1ccc(-c2cc(-c3cccc4cnccc34)ccc2-c2nn[nH]n2)cc1 [Example 16] | 69.9% | 0.0247 µM | 0.0598 µM | 17.1% | 3.6% | 0.0553 µM
6 | CCc1nc2c(C)cc(C)nc2n1Cc1ccc(-c2cc(-c3cnn(C)c3)ccc2-c2nn[nH]n2)cc1 [Example 21] | 64.0% | 0.0514 µM | 0.0221 µM | 21.1% | 6.9% | 0.0773 µM
7 | CCc1nc2c(C)cc(C)nc2n1Cc1ccc(-c2cc(-c3cccn3C)ccc2-c2nn[nH]n2)cc1 [Example 22] | 57.1% | 0.0337 µM | 0.0103 µM | 14.8% | 2.4% | 0.0344 µM
8 | CCc1nc2c(C)cc(C)nc2n1Cc1ccc(-c2cc(-c3cccc(C(=O)N(C)C)c3)ccc2-c2nn[nH]n2)cc1 [Example 23] | 66.3% | 0.17 µM | 0.0541 µM | 26.8% | 7.3% | 0.211 µM
9 | CCc1nc2c(C)cc(C)nc2n1Cc1ccc(-c2cc(N3C(=O)c4ccccc4C3=O)ccc2-c2nn[nH]n2)cc1 [Example 27, 2-(4′-((2-ethyl-5,7-dimethyl-3H-imidazo[4,5-b]pyridin-3-yl)methyl)-6-(2H-tetrazol-5-yl)-[1,1′-biphenyl]-3-yl)isoindoline-1,3-dione] | 20.1% | 0.0895 µM | 0.206 µM | 10.6% |  | > 100 µM
10 | CCCCC(=O)N(Cc1ccc(-c2cc(-c3ccccc3)ccc2-c2nn[nH]n2)cc1)[C@H](C(=O)O)C(C)C [Example 34, (S)-2-(N-((6′-(2H-Tetrazol-5-yl)-[1,1′:3′,1″-terphenyl]-4-yl)methyl)pentanamido)-3-methylbutanoic acid] | 68.4% | 0.0506 µM | 0.0403 µM | 35.6% | 3.8% | 0.178 µM
11 | CCCCc1nc(Cl)c(CO)n1Cc1ccc(-c2cc(-c3ccccc3)ccc2-c2nnn[nH]2)cc1 [Example 35, (1-((6′-(1H-Tetrazol-5-yl)-[1,1′:3′,1″-terphenyl]-4-yl)methyl)-2-butyl-4-chloro-1H-imidazol-5-yl)methanol] | 76.7% | 0.148 µM | 0.064 µM | 28.2% |  | > 50 µM
12 | CCCCOC(=O)NS(=O)(=O)c1sc(-c2ccccc2C)cc1-c1ccc(Cn2c(CC)nc3c(C)cc(C)nc32)cn1 [Example 39, Butyl (3-(5-((2-ethyl-5,7-dimethyl-3H-imidazo[4,5-b]pyridin-3-yl)methyl)pyridin-2-yl)-5-(o-tolyl)thiophen-2-yl)sulfonylcarbamate] | 37.9% | 0.0188 µM | 0.0331 µM | 23.3% | 4.8% | 0.126 µM
13 | CCCCOC(=O)NS(=O)(=O)c1sc(-c2ccccc2C)cc1-c1ccc(Cn2c(CC)nc3c(C)cc(C)nc32)cc1 [Example 40, Butyl (3-(4-((2-ethyl-5,7-dimethyl-3H-imidazo[4,5-b]pyridin-3-yl)methyl)phenyl)-5-(o-tolyl)thiophen-2-yl)sulfonylcarbamate] | 84.6% | 0.014 µM | 0.0093 µM | 36.4% | 8.5% | 0.0119 µM
14 | CCCCOC(=O)NS(=O)(=O)c1sc(-c2ccccc2C(F)(F)F)cc1-c1ccc(Cn2c(CC)nc3c(C)cc(C)nc32)cc1 [Example 45, Butyl (3-(4-((2-ethyl-5,7-dimethyl-3H-imidazo[4,5-b]pyridin-3-yl)methyl)phenyl)-5-(2-(trifluoromethyl)phenyl)thiophen-2-yl)sulfonylcarbamate] | 92.2% | 0.0347 µM | 0.0246 µM | 60.3% | 14.5% | 0.0144 µM
15 | CCCCOC(=O)NS(=O)(=O)c1sc(-c2ccccc2C(F)(F)F)cc1-c1ccc(Cn2c(CC)nc3c(C)cc(C)nc32)cn1 [Example 46, Butyl (3-(5-((2-ethyl-5,7-dimethyl-3H-imidazo[4,5-b]pyridin-3-yl)methyl)pyridin-2-yl)-5-(2-(trifluoromethyl)phenyl)thiophen-2-yl)sulfonylcarbamate] | 84.8% | 0.0131 µM | 0.032 µM | 45.1% | 15.4% | 0.355 µM
16 | CCCCOC(=O)NS(=O)(=O)c1sc(-c2cccnc2OC)cc1-c1ccc(Cn2c(CC)nc3c(C)cc(C)nc32)cc1 [Example 47, Butyl (3-(4-((2-ethyl-5,7-dimethyl-3H-imidazo[4,5-b]pyridin-3-yl)methyl)phenyl)-5-(2-methoxypyridin-3-yl)thiophen-2-yl)sulfonylcarbamate] | 56.6% | 0.0147 µM | 0.0101 µM | 24.5% | 3.8% | 0.0062 µM
17 | CCCCOC(=O)NS(=O)(=O)c1sc(-c2cccnc2OC)cc1-c1ccc(Cn2c(CC)nc3c(C)cc(C)nc32)cn1 [Example 48, Butyl (3-(5-((2-ethyl-5,7-dimethyl-3H-imidazo[4,5-b]pyridin-3-yl)methyl)pyridin-2-yl)-5-(2-methoxypyridin-3-yl)thiophen-2-yl)sulfonylcarbamate] | 43.8% | 0.0406 µM | 0.106 µM | 20.6% | 10.0% | 0.357 µM
